Activity calls are given as the source filed them. The rule behind the calls is not given here.
Tests used:
TK-10 = experiment: Growth inhibition of human TK10 cells after 48 hrs by SRB assay; assay type: functional; conditions: TK-10, 48 h
IGROV-1 = experiment: Growth inhibition of human IGROV1 cells after 48 hrs by SRB assay; assay type: functional; conditions: IGROV-1, 48 h
RXF 393 = experiment: Growth inhibition of human […] cells after 48 hrs by SRB assay; assay type: functional; conditions: RXF 393, 48 h
[1] = Growth inhibition of human OVACR3 cells after 48 hrs by SRB assay; assay type: functional
NCI-H522 = experiment: Growth inhibition of human NCI-H522 cells after 48 hrs by SRB assay; assay type: functional; conditions: NCI-H522, 48 h
SR = experiment: Growth inhibition of human SR cells after 48 hrs by SRB assay; assay type: functional
SK-MEL-5 = experiment: Growth inhibition of human SK-MEL-5 cells after 48 hrs by SRB assay; assay type: functional; conditions: SK-MEL-5, 48 h
EKVX = experiment: Growth inhibition of human EKVX cells after 48 hrs by SRB assay; assay type: functional
SK-OV-3 = experiment: Growth inhibition of human SK-OV-3 cells after 48 hrs by SRB assay; assay type: functional; conditions: SK-OV-3, 48 h
[2] = Growth inhibition of human HL60(TB) cells after 48 hrs by SRB assay; assay type: functional, HL-60(TB); conditions: Homo sapiens, HL-60, 48 h
UO-31 = experiment: Growth inhibition of human UO31 cells after 48 hrs by SRB assay; assay type: functional; conditions: UO-31, 48 h
SK-MEL-28 = experiment: Growth inhibition of human SK-MEL-28 cells after 48 hrs by SRB assay; assay type: functional; conditions: SK-MEL-28, 48 h
COLO 205 = experiment: Growth inhibition of human COLO205 cells after 48 hrs by SRB assay; assay type: functional; conditions: COLO 205, 48 h
LOX IMVI = experiment: Growth inhibition of human LOX IMVI cells after 48 hrs by SRB assay; assay type: functional
HCT-15 = experiment: Growth inhibition of human HCT15 cells after 48 hrs by SRB assay; assay type: functional; conditions: HCT-15, 48 h
SN12C = experiment: Growth inhibition of human SN12C cells after 48 hrs by SRB assay; assay type: functional
SNB-75 = experiment: Growth inhibition of human SNB75 cells after 48 hrs by SRB assay; assay type: functional; conditions: SNB-75, 48 h
NCI-H322M = experiment: Growth inhibition of human NCI-H322M cells after 48 hrs by SRB assay; assay type: functional
SF-539 = experiment: Growth inhibition of human SF539 cells after 48 hrs by SRB assay; assay type: functional; conditions: SF-539, 48 h
NCI-H23 = experiment: Growth inhibition of human NCI-H23 cells after 48 hrs by SRB assay; assay type: functional; conditions: NCI-H23, 48 h
CAKI-1 = experiment: Growth inhibition of human CAKI1 cells after 48 hrs by SRB assay; assay type: functional; conditions: CAKI-1, 48 h
ACHN = experiment: Growth inhibition of human ACHN cells after 48 hrs by SRB assay; assay type: functional
A498 = experiment: Growth inhibition of human A498 cells after 48 hrs by SRB assay; assay type: functional; conditions: A498, 48 h
[3] = Growth inhibition of human […] cells after 48 hrs by SRB assay; assay type: functional
NCI/ADR-RES = experiment: Growth inhibition of human NCI/ADR-RES cells after 48 hrs by SRB assay; assay type: functional
KM12 = experiment: Growth inhibition of human KM12 cells after 48 hrs by SRB assay; assay type: functional; conditions: KM12, 48 h
[4] = Growth inhibition of human OVACR4 cells after 48 hrs by SRB assay; assay type: functional
NCI-60 = experiment: Growth inhibition of human NCI-60 cells at 1.0 uM; assay type: functional, cell-based
SW-620 = experiment: Growth inhibition of human SW620 cells after 48 hrs by SRB assay; assay type: functional; conditions: SW-620, 48 h
NCI-H460 = experiment: Growth inhibition of human NCI-H460 cells after 48 hrs by SRB assay; assay type: functional; conditions: NCI-H460, 48 h
Hs-578T = experiment: Growth inhibition of human HS578T cells after 48 hrs by SRB assay; assay type: functional
A549 = experiment: Growth inhibition of human A549 cells after 48 hrs by SRB assay; assay type: functional; conditions: A549, 48 h
MOLT-4 = experiment: Growth inhibition of human MOLT4 cells after 48 hrs by SRB assay; assay type: functional; conditions: MOLT-4, 48 h
MDA-MB-435 = experiment: Growth inhibition of human MDA-MB-435 cells after 48 hrs by SRB assay; assay type: functional; conditions: MDA-MB-435, 48 h
SF-268 = experiment: Growth inhibition of human SF268 cells after 48 hrs by SRB assay; assay type: functional; conditions: SF-268, 48 h
U-251 = experiment: Growth inhibition of human U251 cells after 48 hrs by SRB assay; assay type: functional; conditions: U-251, 48 h
K562 = experiment: Growth inhibition of human K562 cells after 48 hrs by SRB assay; assay type: functional; conditions: K562, 48 h
MDA-MB-468 = experiment: Growth inhibition of human MDA-MB-468 cells after 48 hrs by SRB assay; assay type: functional; conditions: MDA-MB-468, 48 h
DU-145 = experiment: Growth inhibition of human DU145 cells after 48 hrs by SRB assay; assay type: functional; conditions: DU-145, 48 h
HT-29 = experiment: Growth inhibition of human HT29 cells after 48 hrs by SRB assay; assay type: functional; conditions: HT-29, 48 h
UACC-62 = experiment: Growth inhibition of human UACC62 cells after 48 hrs by SRB assay; assay type: functional; conditions: UACC-62, 48 h
[5] = read-out: LC50 (the source's name)

## Cc1ccc(C2=Nc3c(N)ncnc3NC(c3ccc4c(c3)OCO4)C2)cc1 (racemic)
TK-10
  GI50: 4.47 µM
TK-10; [5]
  CC50: 69.7 µM
IGROV-1
  GI50: 3.34 µM
IGROV-1; [5]
  CC50: > 100 µM
RXF 393
  GI50: 3.5 µM
RXF 393; [5]
  CC50: > 100 µM
[1]
  GI50: 2750 nM
  LC50: 23.3 µM
NCI-H522
  GI50: 3.67 µM
NCI-H522; [5]
  CC50: > 100 µM
SR
  GI50: 250 nM
  LC50 (concentration killing 50% of cells): > 100 µM
SK-MEL-5
  GI50: 3.85 µM
SK-MEL-5; [5]
  CC50: > 100 µM
EKVX
  GI50: 16.2 µM
EKVX; [5]
  CC50: > 100 µM
SK-OV-3
  GI50: 15.8 µM
SK-OV-3; [5]
  CC50: > 100 µM
[2]
  GI50: 720 nM
[2]; [5]
  CC50: > 100 µM
UO-31
  GI50: 10.8 µM
UO-31; [5]
  CC50: 65.2 µM
SK-MEL-28
  GI50: 10.2 µM
SK-MEL-28; [5]
  CC50: > 100 µM
COLO 205
  GI50: 3.47 µM
COLO 205; [5]
  CC50: > 100 µM
LOX IMVI
  GI50: 6.38 µM
LOX IMVI; [5]
  CC50: 81.5 µM
HCT-15
  GI50: 3.14 µM
HCT-15; [5]
  CC50: 55.2 µM
SN12C
  GI50: 8.61 µM
SN12C; [5]
  CC50: > 100 µM
SNB-75
  GI50: 4.55 µM
SNB-75; [5]
  CC50: > 100 µM
NCI-H322M
  GI50: 16.5 µM
NCI-H322M; [5]
  CC50: > 100 µM
SF-539
  GI50: 4.98 µM
SF-539; [5]
  CC50: 69.9 µM
NCI-H23
  GI50: 10.2 µM
NCI-H23; [5]
  CC50: > 100 µM
CAKI-1
  GI50: 1440 nM
CAKI-1; [5]
  CC50: > 100 µM
ACHN
  GI50: 7.74 µM
  LC50 (lethal concentration 50%): > 100 µM
A498
  GI50: 6.33 µM
  LC50: > 100 µM
[3]
  GI50: 13.5 µM
[3]; [5]
  CC50: > 100 µM
NCI/ADR-RES
  GI50: 3.52 µM
NCI/ADR-RES; [5]
  CC50: > 100 µM
KM12
  GI50: 3.79 µM
KM12; [5]
  CC50: 75.1 µM
[4]
  GI50: 17.7 µM
  LC50: > 100 µM
NCI-60
  Activity: Active
SW-620
  GI50: 3.56 µM
SW-620; [5]
  CC50: > 100 µM
NCI-H460
  GI50: 3.59 µM
NCI-H460; [5]
  CC50: > 100 µM
Hs-578T
  GI50: 7.28 µM
Hs-578T; [5]
  CC50: > 100 µM
A549
  GI50: 7.09 µM
  LC50: > 100 µM
MOLT-4
  GI50: 2660 nM
MOLT-4; [5]
  CC50: > 100 µM
MDA-MB-435
  GI50: 1150 nM
MDA-MB-435; [5]
  CC50: 90.8 µM
SF-268
  GI50: 4.06 µM
  LC50 (50% lethal concentration): 52.2 µM
U-251
  GI50: 4.55 µM
U-251; [5]
  CC50: 44.5 µM
K562
  GI50: 4.19 µM
  LC50: > 100 µM
MDA-MB-468
  GI50: 3.68 µM
MDA-MB-468; [5]
  CC50: > 100 µM
DU-145
  GI50: 4.52 µM
DU-145; [5]
  CC50: 46.7 µM
HT-29
  GI50: 3.81 µM
HT-29; [5]
  CC50: > 100 µM
UACC-62
  GI50: 4.09 µM
UACC-62; [5]
  CC50: > 100 µM
